Data set [1] in a line: Subcutaneous writhing test (antagonism of the syndrome produced by intraperitoneal 0.6% aqueous acetic acid). It is filed as in vivo. The note with it: mice, 20 minutes before acetic acid, Litchfield-Wilcoxon's method. Here is the method: […]. Note: The test was based on the specific antagonism of the test compound to the typical syndrome produced by intraperitoneal injection of 0.6% aqueous acetic acid. The syndrome was characterized by intermittent contractions of the abdomen, twisting and turning of the trunk and extension of the hind legs. A group of 5 mice was used for each dose level. The test compound was administered subcutaneously 20 minutes before the injection of acetic acid. […] The ED50 value was calculated according to the Litchfield-Wilcoxon's method.
(Writhing tests count abdominal constrictions after an irritant is injected.)

The nature of data set [2]: Physical dependency test: abstinence syndrome (body weight decrease on the day after drug withdrawal following 4 weeks of administration). It is filed as in vivo, rats (male, Wistar strain). Details: key to Abstinence syndrome: +++: severe decrease (about 5% decrease); ++: moderate decrease; +: mild decrease; -: no decrease. The note with it: for Abstinence syndrome: 20 mg/kg/day, subcutaneously twice a day for 4 weeks, body weight decrease on next day after withdrawal, male Wistar rats; for addiction in long term animal tests / physical dependency: result in words; for physical dependency: orally or subcutaneously to rats everyday for 4 weeks. Here is the method:
Known 6,7-benzomorphan derivatives such as 2'-hydroxy-2,5,9-trimethyl-6,7-benzomorphan [cf. […] On account of this addiction liability, these analgesics are severely restricted in a therapeutic use.
Note: Groups of male rats of Wistar strain (body weight, 150 g at the beginning of the test), each group consisting of 20 male rats, were subcutaneously given the test compound twice a day for 4 consecutive weeks. On the next day after drug withdrawal, the body weight was measured. The symbols have the following meanings: +++, severe decrease (about 5% decrease); ++, moderate decrease; +, mild decrease; -, no decrease.

For data set [3] the following is noted: known, cf. U.S. Pat. No. 3,138,603; result in words; cited from earlier work.
The conditions of data set [4]: known, cf. U.S. Pat. No. 3,138,603; result in words; cited from earlier work. This is another data set of the same source.
The mark [5] stands for this setting: Mus musculus, sc, read-out: ED50.

Where two headings read alike, the source gives them in different places.

We go through 4 compounds from patent publication US3950346A, “Novel process for producing 2-ketoethylbenzomorphan derivatives and salts thereof” (Sumitomo Chemical Company, Limited, priority 1972, dated 1976).

Consider `CCOC(=O)CCN1CCC2(C)c3cc(O)ccc3CC1C2C` (stereo not drawn) [2'-Hydroxy-2-(β-ethoxycarbonylethyl)-5,9-dimethyl-6,7-benzomorphan], for which the ED50 (as a rule, the midpoint of the dose-response relation) in data set [1] (setting [5]) amounted to 16.1 mg/kg. In addition, in data set [2], the Abstinence syndrome entry is given as “-”, the “addiction in long term animal tests” value is reported as “do not show any addiction” and the physical dependency result is recorded as “did not produce any physical dependency”.
As to `CC(C)=CCN1CCC2(C)c3cc(O)ccc3CC1C2C` (stereo not drawn) [Pentazocine, 2'-hydroxy-2-(3"-methyl-2"-butenyl)-5,9-dimethyl-6,7-benzomorphan, reference compound], the ED50 in data set [1] (setting [5]) was found to be 17.5 mg/kg.
Turning to “2'-Hydroxy-2-(β-ethylcarbonylethyl)-5,9-dimethyl-6,7-benzomorphan”, the ED50 in data set [1] is reported as 7.0 mg/kg. In data set [2], the Abstinence syndrome result is listed as “-”, the “addiction in long term animal tests” value was “do not show any addiction” and the physical dependency entry is reported as “did not produce any physical dependency”.
As for `CC1C2Cc3ccc(O)cc3C1(C)CCN2C` (stereo not drawn) [2'-hydroxy-2,5,9-trimethyl-6,7-benzomorphan], in data set [3], the analgesic activity result is listed as “potent analgesic activity”. Moreover, the Abstinence syndrome entry in data set [2] is “++”. Moreover, the addiction liability result in data set [4] is “show an addiction liability”.
